{"source": "patent US9532961B2", "about": "“Method and kit for administering γ-glutamyl-D-cysteine for the prevention of reperfusion injury following ischemic stroke” (Rosalind Franklin University of Medicine and Science, priority 2005, dated 2017)", "key": {"[1]": {"test": "in vitro", "type": "in vitro ADME", "settings": "rat", "procedure": "Separate peaks representing the intact peptide and its metabolites are plotted as a function of time. The area under the curve for selected peaks may be measured and compared to appropriate standards to quantify the concentration of γ-Glu-Cys and its metabolites.\nLoss of γ-Glu-Cys from the incubation medium, and the appearance of Cys and oxidized γ-Glu-Cys were quantified using HPLC to measure degradation, hydrolysis, and oxidation respectively. The ½-time for degradation of γ-Glu-Cys is 11.3±1.2 mins. Values are mean±SD. N=3 separate experiments.\nLoss of γ-Glu-D-Cys from the incubation medium, and the appearance of D-Cys and oxidized γ-Glu-D-Cys were quantified using HPLC to measure degradation, hydrolysis, and oxidation respectively. Values are mean±SD. N=3 separate experiments.\nComparing the initial rates of degradation confirmed that γ-Glu-D-Cys is degraded more slowly (0.12±0.02 vs 0.22±0.02 mM/min, P=0.006). Values are mean±SD. N=3 separate experiments.\nValues are mean±SD. N=3 separate experiments. * indicates significant difference at P<0.05.\nAs a measure of stability, the initial velocities of degradation for γ-Glu-Cys and γ-Glu-D-Cys were compared and found to be 0.22±0.03 vs. 0.12±0.02 (mM/min), respectively.\nFIG. 11 is a graph showing the temporal comparison of degradation, oxidation and hydrolysis of γ-Glu-Cys. FIG. 12 is a graph showing the temporal comparison of degradation, oxidation, and hydrolysis of the analog γ-Glu-D-Cys. FIG. 13 is a graph comparing the degradation of γ-Glu-Cys and γ-Glu-D-Cys, as measured by the loss of intact peptide as a function of time of incubation. FIG. 14 is a graph comparing the hydrolysis of γ-Glu-Cys and γ-Glu-D-Cys, by appearance of cysteine and D-cysteine respectively, as a function of time. Mean±SE; * indicates significant difference at P<0.05. FIG. 15 is a graph comparing the oxidation of γ-Glu-Cys and γ-Glu-D-Cys, by appearance of oxidized γ-Glu-Cys and oxidized γ-Glu-D-Cys respectively, as a function of time. Mean±SE. * indicates P<0.05."}, "[2]": {"test": "Oxiselect Total Antioxidant Capacity Assay in rat serum (1-9%) in Tris Buffer", "settings": "0.0625, 0.125, 0.3125 and 0.625 mM, averaged", "procedure": "(§1) FIGS. 16a and 16b indicate that the antioxidant capacities of γ-Glu-Cys and γ-Glu-D-Cys are the same using an in vitro assay. Antioxidant capacities were measured with the Oxiselect Total Antioxidant Capacity Assay Kit, using uric acid as a standard. […] Values are mean±SE. N=3 separate experiments for the 0.78, 1.56, and 3.13 mM concentrations. N=2 separate experiments for the 0.39 mM concentration. *P=0.047."}, "[3]": {"tested_on": "Human red blood cells", "test": "Spontaneous hemolysis of human red blood cells (hemoglobin release at 540 nm)", "type": "cell-based", "settings": "37° C.", "procedure": "Human red blood cells (5%) were incubated in isotonic phosphate buffer, pH 7.4 for 190 minutes at 37° C. in the presence or absence of γ-Glu-Cys and γ-Glu-D-Cys, and spontaneous hemolysis was quantified by measuring hemoglobin release spectrophotometrically at 540 nm. […] Values are mean±SE for 4 observations."}, "[4]": {"test": "Oxiselect Total Antioxidant Capacity Assay in human plasma (90-99%)", "procedure": "as §1"}, "[5]": {"tested_on": "cultured blood-brain barrier endothelial cells", "test": "Lactate dehydrogenase (LDH) release from cultured blood-brain barrier endothelial cells under ischemia and reperfusion", "type": "cell-based, bovine", "settings": "1 mM; ischemia 1.5 hrs, reperfusion 3.0 hrs; P<0.05", "source_text": "FIG. 7 is a bar graph of data showing that the antioxidant gamma-glutamyl cysteine (γ-Glu-Cys) inhibits cell damage to cerebral capillary endothelial cells cultured under conditions of ischemia and reperfusion.\nCultured blood-brain barrier cells can be used as an in vitro cellular model to confirm that Na/Ca exchange may operate in the reverse direction under conditions simulating reperfusion, following transient ischemia. Cerebral capillary endothelial cells are isolated from bovine brain by the method of Meresse et al. (42), or purchased from Cell Systems Corporation (Kirkland, Wash.). Cells are grown and maintained (up to passage 5) on collagen type I- and fibronectin-coated tissue culture flasks in Eagle's minimal essential medium supplemented with 10% fetal bovine serum (54, 62). To form a polarized endothelium, cells are seeded on cluster plate inserts and incubated in the presence of an astrocyte conditioned medium supplemented with cAMP, as previously described (4, 54). […]\nCultured blood-brain barrier endothelial cells were incubated under conditions of ischemia (1.5 hours) followed by reperfusion (3.0 hours), in the presence and absence of γ-glutamyl cysteine (γ-Glu-Cys). Cellular damage was detected by measuring release of lactate dehydrogenase (LDH) into the incubation medium, following treatment. […]"}, "[6]": {"tested_on": "cultured bovine blood-brain barrier endothelial cells", "test": "Intracellular calcium (Fluo-4 fluorescence) in cultured blood-brain barrier cells under simulated ischemia-reperfusion", "type": "cell-based", "procedure": "FIG. 4 is a bar graph of data showing that when cerebral capillary endothelial cells are exposed to ischemic conditions, intracellular calcium concentration increases and remains elevated during reperfusion; the elevation in intracellular calcium is prevented by pharmacological inhibition of the Na/H antiporter. Cultured bovine blood-brain barrier cells were treated as described above (FIG. 2). […] The rise in intracellular calcium observed during reperfusion was prevented by inhibiting Na/H antiport (100 μM DMA). *P<0.05 compared to control. +P<0.05 compared to reperfusion. Values are mean±SD. Intracellular calcium was measured with fluorescent imaging, using Fluo-4.\nFIG. 5 is a bar graph of data showing that when cerebral capillary endothelial cells are exposed to ischemic conditions, intracellular calcium concentration increases and remains elevated during reperfusion; the elevation in intracellular calcium is prevented by pharmacological inhibition of reverse movement of the Na/Ca exchanger. Cultured bovine blood-brain barrier cells were treated as described above (FIG. 2). […] The rise in intracellular calcium observed during reperfusion was prevented by inhibiting reverse movement of Na/Ca exchange (20 μM KB-R7943). *P<0.05 compared to control. +P<0.05 compared to reperfusion. Values are mean±SD. Intracellular calcium was measured with fluorescent imaging, using Fluo-4. […]"}, "[7]": {"molecular_target": "T1, Na/Ca exchange (Homo sapiens, UniProt P32418)", "T1 construct": "host or cells: cardiac and renal tissues (as cited)", "settings": "cardiac and renal tissues (ref. 26); cited from earlier work"}, "[8]": {"tested_on": "heart and kidney", "settings": "heart and kidney (refs. 29, 45); cited from earlier work"}, "[9]": {"tested_on": "cultured bovine blood-brain barrier endothelial cells", "test": "Intracellular sodium (sodium green fluorescence) in cultured blood-brain barrier cells under simulated ischemia-reperfusion", "type": "cell-based", "settings": "100 μM; ischemia 90 mins, reperfusion 30 mins", "procedure": "FIG. 3 is a bar graph of data showing that when cerebral capillary endothelial cells are exposed to ischemic conditions, intracellular sodium concentration increases and remains elevated during reperfusion; the elevation in intracellular sodium is prevented by pharmacological inhibition of the Na/H antiporter. Cultured bovine blood-brain barrier cells were exposed to conditions simulating ischemia and reperfusion, by incubating in 95% N2/5% CO2 without glucose (90 mins) at pH 6.8, followed by room air/5% CO2 with 5.6 mM glucose (30 mins) at pH 7.4, respectively. […] The rise in intracellular sodium observed during reperfusion was prevented by inhibiting Na/H exchange (100 μM dimethylamiloride, DMA). *P<0.05. Values are mean±SD. […] Intracellular sodium was measured with fluorescent imaging, using sodium green. […]\nCultured bovine blood-brain barrier endothelial cells were exposed to conditions simulating ischemia and reperfusion as described in Example 2. Sodium fluorescence is measured in cultured bovine blood-brain barrier endothelial cells under the following conditions: 1) control (120 minutes), 2) simulated ischemia (120 minutes), 3) simulated ischemia (90 minutes) followed by simulated reperfusion (30 minutes), 4) simulated ischemia/reperfusion (90/30 minutes), in the presence of an inhibitor (dimethylamiloride, 100 μM) of Na/H exchange. […]"}, "[10]": {"tested_on": "caspase 3 activity in cultured bovine blood-brain barrier endothelial cells", "test": "Caspase 3 activity in cultured blood-brain barrier cells under simulated ischemia-reperfusion", "type": "cell-based", "settings": "100 μM; 30 mins ischemia, 24 hours reperfusion; P<0.05 from I/Rep", "source_text": "FIG. 6 is a bar graph of data showing that ischemia followed by reperfusion of cultured cerebral capillary endothelial cells results in an increase of caspase 3 activity that is inhibited by an inhibitor of Na/H exchange. Caspase 3 activity is expressed in cultured blood-brain barrier cells exposed to conditions simulating ischemia-reperfusion. […] I/Rep is ischemia plus reperfusion; I/R Na inh is ischemia-reperfusion with inhibitor; I/R Cp inh is ischemia-reperfusion with a specific caspase inhibitor. Values are mean±SD for 3 observations.\nCultured blood-brain barrier cells can be exposed to conditions simulating ischemia and reperfusion, by a method similar to that reported in the literature (25). The precise composition of the incubation medium varies, depending upon the experimental protocols. In general, however, cells are incubated at 37° C. first in an ischemic medium (without glucose, pH 6.8) equilibrated with an atmosphere of 95% N2 and 5% CO2, followed by simulated reperfusion in a control medium (5.6 mM glucose, pH 7.4) equilibrated with room air and 5% CO2. […]\nCaspase 3 activity was measured in cultured bovine blood-brain barrier endothelial cells under control conditions (24.5 hours), simulated ischemia (24.5 hours), or ischemia (0.5 hours) followed by reperfusion (24 hours, I/Rep) as described in Example 2. […]"}}, "note": "Entries after “also recorded” stand apart in the source; their conditions may differ.", "data": [{"smiles": "N[C@@H](CCC(=O)N[C@@H](CS)C(=O)O)C(=O)O", "note": "[γ-Glu-Cys, γ-glutamyl cysteine]", "values": [{"measurement": "intactness in serum for 1 minute", "setting": "[1]; 1 min, 6.25 mM", "result": "remains primarily intact for 1 minute in serum"}, {"measurement": "half-life at 6.25 mM", "setting": "[1]; serum", "result": "11.3 ± 1.2", "unit": "min"}, {"measurement": "antioxidant capacity (uric acid equivalents), γ-Glu-Cys vs γ-Glu-D-Cys", "setting": "[2]", "result": "not to be significantly different from each other"}, {"measurement": "difference in cytoprotective effect, γ-Glu-Cys vs γ-Glu-D-Cys", "setting": "[3]; 1 mM each, 190 minutes", "result": "no significant difference in their cytoprotective effect"}, {"measurement": "spontaneous hemolysis", "setting": "[3]; 1 mM, 5% red blood cells, phosphate buffer pH 7.4, 190 minutes", "result": "significantly inhibit spontaneous hemolysis"}, {"measurement": "toxicity (increase of hemolysis)", "setting": "[3]; 1 mM, 190 minutes", "result": "not toxic under the experimental conditions"}, {"measurement": "antioxidant capacity, γ-Glu-Cys vs γ-Glu-D-Cys", "setting": "[4]; 0.39 mM in human plasma (90-99%), N=2, P=0.047", "result": "marginal difference"}, {"measurement": "antioxidant capacity, γ-Glu-Cys vs γ-Glu-D-Cys", "setting": "[4]; 0.78, 1.56, and 3.13 mM in human plasma (90-99%), N=3", "result": "a significant difference was not detected"}, {"measurement": "LDH release (cellular damage)", "setting": "[5]", "result": "reduced LDH release; also recorded: cellular damage was significantly reduced"}]}, {"smiles": "CS(=O)(=O)O.N=C(N)SCCc1ccc(OCc2ccc([N+](=O)[O-])cc2)cc1", "note": "[KB-R7943, 2-[2-[4-(4-nitrobenzyloxy)phenyl]ethyl]isothiourea methanesulphonate]", "values": [{"measurement": "rise in intracellular calcium observed during reperfusion", "setting": "[6]; 20 μM KB-R7943 (reverse Na/Ca exchange inhibition), methanesulphonate", "result": "prevented; also recorded: inhibits the rise in intracellular calcium"}, {"measurement": "direction selectivity of Na/Ca exchange inhibition", "setting": "[7]", "result": "greater affinity for suppressing movement in the reverse direction"}, {"measurement": "effect on Na/Ca exchange", "setting": "[7]", "result": "inhibits Na/Ca exchange"}, {"measurement": "cytoprotection under conditions of ischemia and reperfusion", "setting": "[8]", "result": "cytoprotective"}]}, {"smiles": "CN(C)c1nc(N)c(C(=O)N=C(N)N)nc1Cl", "note": "[dimethylamiloride]", "values": [{"measurement": "rise in intracellular calcium observed during reperfusion", "setting": "[6]; 100 μM DMA (Na/H antiport inhibition), listed as DMA", "result": "prevented; also recorded: inhibits the rise in intracellular calcium"}, {"measurement": "rise in intracellular sodium observed during reperfusion", "setting": "[9]", "result": "prevented; also recorded: inhibits the rise in intracellular sodium"}, {"measurement": "increase in caspase 3 activity", "setting": "[10]", "result": "inhibited"}]}]}
